# From patent US10670605B2, “Cysteine reactive probes and uses thereof” (The Scripps Research Institute, priority 2015, dated 2020)
# Structures can show the parent of a compound that is named as a salt.
# Experiments:
# Assay in all cases: isoTOP-ABPP of compound-treated primary human T cells
# Format in all cases: cell-based
# [1] = target: T1, Cys residues in primary human T cells (Homo sapiens, UniProt Q15306); settings: IRF4 C194 (Q15306)
# T1 sequence (Q15306 1-451): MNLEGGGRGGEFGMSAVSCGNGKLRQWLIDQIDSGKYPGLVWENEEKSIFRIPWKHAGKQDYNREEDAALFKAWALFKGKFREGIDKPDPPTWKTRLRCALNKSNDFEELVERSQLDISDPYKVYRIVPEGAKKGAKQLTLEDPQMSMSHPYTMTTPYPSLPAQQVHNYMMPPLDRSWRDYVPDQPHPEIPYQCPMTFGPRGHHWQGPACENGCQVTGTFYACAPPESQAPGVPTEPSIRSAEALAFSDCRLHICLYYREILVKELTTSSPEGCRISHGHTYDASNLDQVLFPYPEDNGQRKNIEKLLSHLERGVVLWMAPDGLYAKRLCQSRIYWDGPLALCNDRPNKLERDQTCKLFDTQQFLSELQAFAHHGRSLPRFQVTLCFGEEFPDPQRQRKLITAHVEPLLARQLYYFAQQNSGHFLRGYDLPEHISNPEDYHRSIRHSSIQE
# [2] = target: T2, Cys residues in primary human T cells (Homo sapiens, UniProt Q9Y2W6); settings: TDRKH C109 (Q9Y2W6)
# T2 sequence (Q9Y2W6 1-561): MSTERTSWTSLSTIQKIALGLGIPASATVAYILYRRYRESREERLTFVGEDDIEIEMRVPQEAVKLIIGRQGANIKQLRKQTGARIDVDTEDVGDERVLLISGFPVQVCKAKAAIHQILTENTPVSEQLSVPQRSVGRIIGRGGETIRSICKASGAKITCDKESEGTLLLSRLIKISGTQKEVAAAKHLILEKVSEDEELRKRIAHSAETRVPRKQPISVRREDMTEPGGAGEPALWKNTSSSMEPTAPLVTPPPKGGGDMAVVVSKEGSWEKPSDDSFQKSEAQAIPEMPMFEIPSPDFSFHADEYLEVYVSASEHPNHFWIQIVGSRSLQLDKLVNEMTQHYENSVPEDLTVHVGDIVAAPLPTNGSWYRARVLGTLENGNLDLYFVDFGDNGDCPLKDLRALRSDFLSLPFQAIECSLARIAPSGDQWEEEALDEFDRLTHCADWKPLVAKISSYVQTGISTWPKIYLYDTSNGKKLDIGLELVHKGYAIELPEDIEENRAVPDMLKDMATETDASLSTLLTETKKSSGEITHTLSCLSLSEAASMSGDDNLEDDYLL
# [3] = target: T3, Cys residues in primary human T cells (Homo sapiens, UniProt P49588); settings: AARS C773 (P49588)
# T3 sequence (P49588 1-968): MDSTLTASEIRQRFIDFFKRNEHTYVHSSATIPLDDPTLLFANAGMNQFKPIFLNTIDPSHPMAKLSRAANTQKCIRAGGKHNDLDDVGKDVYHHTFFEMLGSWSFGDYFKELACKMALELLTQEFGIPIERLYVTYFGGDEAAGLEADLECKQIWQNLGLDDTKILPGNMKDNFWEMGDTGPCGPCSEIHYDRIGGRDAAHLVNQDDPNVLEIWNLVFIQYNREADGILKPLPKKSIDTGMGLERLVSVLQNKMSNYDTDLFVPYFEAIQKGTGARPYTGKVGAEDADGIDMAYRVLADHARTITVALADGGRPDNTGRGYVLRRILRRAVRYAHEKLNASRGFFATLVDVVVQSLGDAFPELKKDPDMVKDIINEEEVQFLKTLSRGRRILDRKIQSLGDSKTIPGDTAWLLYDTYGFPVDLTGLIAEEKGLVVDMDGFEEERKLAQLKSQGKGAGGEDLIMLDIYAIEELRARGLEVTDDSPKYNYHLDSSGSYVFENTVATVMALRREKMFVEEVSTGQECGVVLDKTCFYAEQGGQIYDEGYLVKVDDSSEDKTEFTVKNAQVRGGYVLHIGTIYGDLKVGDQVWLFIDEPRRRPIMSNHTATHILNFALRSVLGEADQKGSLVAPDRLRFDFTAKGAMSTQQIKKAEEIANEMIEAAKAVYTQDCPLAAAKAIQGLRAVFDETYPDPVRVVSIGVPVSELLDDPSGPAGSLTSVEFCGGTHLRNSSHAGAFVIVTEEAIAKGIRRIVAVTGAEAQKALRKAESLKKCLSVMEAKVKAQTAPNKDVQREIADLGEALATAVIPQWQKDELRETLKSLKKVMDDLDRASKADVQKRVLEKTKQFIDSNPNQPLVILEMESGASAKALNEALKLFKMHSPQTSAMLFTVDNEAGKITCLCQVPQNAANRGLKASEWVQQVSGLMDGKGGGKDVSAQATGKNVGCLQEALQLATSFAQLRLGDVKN
# [4] = target: T4, Cys residues in primary human T cells (Homo sapiens, UniProt Q02556); settings: IRF8 C306 (Q02556)
# T4 sequence (Q02556 1-426): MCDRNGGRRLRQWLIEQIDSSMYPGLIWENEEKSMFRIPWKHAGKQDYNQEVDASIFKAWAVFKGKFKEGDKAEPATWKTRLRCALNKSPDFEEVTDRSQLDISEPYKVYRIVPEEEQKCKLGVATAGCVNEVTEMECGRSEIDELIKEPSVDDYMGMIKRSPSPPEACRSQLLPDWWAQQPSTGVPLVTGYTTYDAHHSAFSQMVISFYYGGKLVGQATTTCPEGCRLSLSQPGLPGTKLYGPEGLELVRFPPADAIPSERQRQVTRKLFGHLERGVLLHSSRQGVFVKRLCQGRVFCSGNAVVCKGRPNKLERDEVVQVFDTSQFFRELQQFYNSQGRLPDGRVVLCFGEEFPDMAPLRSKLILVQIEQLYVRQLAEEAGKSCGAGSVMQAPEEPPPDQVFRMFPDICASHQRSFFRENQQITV
# [5] = target: Cys residues in primary human T cells (Homo sapiens, UniProt Q8IYQ7); settings: THNSL1 C324 (Q8IYQ7)
# Cys residues in primary human T cells (Homo sapiens, UniProt Q8IYQ7), sequence (Q8IYQ7 whole entry): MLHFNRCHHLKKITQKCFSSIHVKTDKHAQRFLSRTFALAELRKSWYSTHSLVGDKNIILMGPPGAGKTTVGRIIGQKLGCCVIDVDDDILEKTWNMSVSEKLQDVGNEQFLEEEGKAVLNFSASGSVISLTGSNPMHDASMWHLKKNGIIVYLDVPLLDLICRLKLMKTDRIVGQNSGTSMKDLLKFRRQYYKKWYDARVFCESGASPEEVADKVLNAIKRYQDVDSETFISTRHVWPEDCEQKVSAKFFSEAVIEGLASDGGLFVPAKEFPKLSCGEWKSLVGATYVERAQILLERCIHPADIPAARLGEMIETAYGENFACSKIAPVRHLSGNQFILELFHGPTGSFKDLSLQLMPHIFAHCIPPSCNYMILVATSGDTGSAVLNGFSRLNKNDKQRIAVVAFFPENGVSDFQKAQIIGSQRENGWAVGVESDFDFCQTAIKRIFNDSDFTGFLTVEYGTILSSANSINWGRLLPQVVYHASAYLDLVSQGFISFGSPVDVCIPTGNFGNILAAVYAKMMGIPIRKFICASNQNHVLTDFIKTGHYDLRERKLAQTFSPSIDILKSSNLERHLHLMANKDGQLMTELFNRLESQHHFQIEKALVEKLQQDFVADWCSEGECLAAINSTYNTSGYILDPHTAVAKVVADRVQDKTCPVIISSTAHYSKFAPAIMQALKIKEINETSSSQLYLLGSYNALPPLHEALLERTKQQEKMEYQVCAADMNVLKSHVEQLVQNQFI
# [6] = target: Cys residues in primary human T cells (Homo sapiens, UniProt Q8TB24); settings: RIN3 C942 (Q8TB24)
# Cys residues in primary human T cells (Homo sapiens, UniProt Q8TB24), sequence (Q8TB24 whole entry): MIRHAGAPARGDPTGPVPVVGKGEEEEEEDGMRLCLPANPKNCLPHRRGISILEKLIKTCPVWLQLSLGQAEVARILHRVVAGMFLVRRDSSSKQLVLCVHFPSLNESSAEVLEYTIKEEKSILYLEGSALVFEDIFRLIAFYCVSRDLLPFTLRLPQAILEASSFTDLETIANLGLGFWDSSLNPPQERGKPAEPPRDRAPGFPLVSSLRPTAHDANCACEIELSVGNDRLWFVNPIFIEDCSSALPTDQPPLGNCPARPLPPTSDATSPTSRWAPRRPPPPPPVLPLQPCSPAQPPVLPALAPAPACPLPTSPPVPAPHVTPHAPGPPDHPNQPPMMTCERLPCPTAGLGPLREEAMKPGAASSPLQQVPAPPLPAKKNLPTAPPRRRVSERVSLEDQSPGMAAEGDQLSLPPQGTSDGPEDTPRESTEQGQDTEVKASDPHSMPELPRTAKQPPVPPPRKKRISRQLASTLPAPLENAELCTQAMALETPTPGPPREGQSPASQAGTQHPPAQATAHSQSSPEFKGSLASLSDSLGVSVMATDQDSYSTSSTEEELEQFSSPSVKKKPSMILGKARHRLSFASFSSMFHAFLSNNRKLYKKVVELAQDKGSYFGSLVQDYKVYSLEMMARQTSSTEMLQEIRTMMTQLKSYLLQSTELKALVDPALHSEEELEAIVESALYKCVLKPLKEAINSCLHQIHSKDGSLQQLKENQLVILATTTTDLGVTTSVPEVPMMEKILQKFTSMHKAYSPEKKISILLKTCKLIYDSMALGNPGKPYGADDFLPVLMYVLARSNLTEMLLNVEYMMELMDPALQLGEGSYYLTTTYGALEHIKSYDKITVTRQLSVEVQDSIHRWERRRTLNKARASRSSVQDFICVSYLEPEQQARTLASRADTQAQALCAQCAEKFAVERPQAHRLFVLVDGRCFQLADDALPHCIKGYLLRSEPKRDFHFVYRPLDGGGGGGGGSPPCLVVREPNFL
smiles,measurement,setting,value
"COC(=O)/C=C/C(=O)OC [DMF, dimethyl fumarate]",R value (DMSO/DMF),[1]; DMF 10 μM 4h,1.69
same,R value (DMSO/DMF),[1]; DMF 25 μM 4h,1.78
same,R value (DMSO/DMF),[1]; DMF 50 μM 1h,1.32
same,R value (DMSO/DMF),[1]; DMF 50 μM 2h,3.13
same,R value (DMSO/DMF),[1]; DMF 50 μM 4h,5.25
same,R value (DMSO/DMF),[2]; DMF 10 μM 4h,2.34
same,R value (DMSO/DMF),[2]; DMF 50 μM 1h,4
same,R value (DMSO/DMF),[2]; DMF 50 μM 2h,20
same,R value (DMSO/DMF),[2]; DMF 50 μM 4h,20
same,R value (DMSO/DMF),[3]; DMF 10 μM 4h,2.84
same,R value (DMSO/DMF),[3]; DMF 50 μM 1h,9.34
same,R value (DMSO/DMF),[3]; DMF 50 μM 2h,10.16
same,R value (DMSO/DMF),[3]; DMF 50 μM 4h,12.75
same,R value (DMSO/DMF),[4]; DMF 10 μM 4h,1.9
same,R value (DMSO/DMF),[4]; DMF 50 μM 1h,1.66
same,R value (DMSO/DMF),[4]; DMF 50 μM 4h,5.32
same,R value (DMSO/DMF),[5]; DMF 50 μM 1h,15.93
same,R value (DMSO/DMF),[5]; DMF 50 μM 2h,19.36
same,R value (DMSO/DMF),[6]; DMF 50 μM 2h,3
same,R value (DMSO/DMF),[6]; DMF 50 μM 4h,5.7
